Where a name gives a salt, the structure may show the parent alone.
Tests used:
[1] = test system: S-3769 strain; assay: Combinational effect with antibacterial agent against Pseudomonas aeruginosa (Test Examples 2 and 4): S-3769 strain with AMK or GM at 1/4 MIC, EC99; type: cell-based; conditions: for EC99, S-3769 strain, AMK / EC99, S-3769 strain, GM: Table 52, Test Example 2, 16 to 20 hours culture, OD595; for EC99, S-3769 strain, AMK / EC99, combinational effect with AMK, S-3769 strain: combined with AMK at 1/4 MIC; for EC99, S-3769 strain, GM / EC99, combinational effect with GM, S-3769 strain: combined with GM at 1/4 MIC; for EC99, combinational effect with AMK, S-3769 strain / EC99, combinational effect with GM, S-3769 strain: Test Example 4
Procedure, shortened: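 EC99, the lowest test-compound concentration inhibiting growth by ≥99% (OD595), was measured with aminoglycoside AMK or GM held at ¼ MIC. Strain S-3769, a MexY-overexpressing clinical isolate, was cultured in CAMHB at 10^4 to 5 CFU/well for 16–20 h; compound range 0–800 μM.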

[2] = test system: mexB (PA) strain; assay: Combinational effect with antibacterial agent against Pseudomonas aeruginosa (Test Examples 2 and 4): mexB (PA) strain with LVFX, TC or AZT at 1/4 MIC, EC99; type: cell-based; conditions: for EC99, mexB (PA), AZT / EC99, mexB (PA), LVFX / EC99, mexB (PA), TC: Table 52, Test Example 2, 16 to 20 hours culture, OD595; for EC99, mexB (PA), AZT / EC99, combinational effect with AZT, mexB (PA): combined with AZT at 1/4 MIC; for EC99, mexB (PA), LVFX / EC99, combinational effect with LVFX, mexB (PA): combined with LVFX at 1/4 MIC; for EC99, mexB (PA), TC / EC99, combinational effect with TC, mexB (PA): combined with TC at 1/4 MIC; for EC99, combinational effect with AZT, mexB (PA) / EC99, combinational effect with LVFX, mexB (PA) / EC99, combinational effect with TC, mexB (PA): mexB (PA) strain, Test Example 4
Procedure, shortened: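 EC99 denotes the minimum test-compound concentration (range 0–800 μM) that suppresses ≥99% of growth, measured by OD595, when combined with ¼ MIC levofloxacin (LVFX), tetracycline or aztreonam. The efflux-pump mutant mexB (PA), expressing mainly MexAB-OprM, was inoculated at 10^4–5 CFU/well in CAMHB for 16–20 h.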

With `CCOc1cccc(F)c1CN1CCN(C(=O)[C@H](N)C2CCN(CCC3COc4ccccc4C3)CC2)CC1` (stereo partly drawn) [Example 153, Hydrobromide of (2R)-2-amino-2-(1-(2-(chroman-3-yl)ethyl)piperidin-4-yl)-1-(4-(2-ethoxy-6-fluorobenzyl)piperazin-1-yl)ethan-1-one] the “EC99, S-3769 strain, AMK” value [1] was “S (EC99≤12.5 μM)”, the “EC99, S-3769 strain, GM” value [1] was “S (EC99≤12.5 μM)” and the “EC99, mexB (PA), AZT” value [2] was “C (100 μM<EC99)”. The “EC99, mexB (PA), LVFX” value [2] was “C (100 μM<EC99)” and the “EC99, mexB (PA), TC” value [2] was “C (100 μM<EC99)”.

With `CCOc1cccc(F)c1CN1CCN(C(=O)[C@H](N)C2CCN(CCn3ccc4ccccc43)CC2)CC1` [Example 159, Hydrobromide of (R)-2-(1-(2-(1H-indol-1-yl)ethyl)piperidin-4-yl)-2-amino-1-(4-(2-ethoxy-6-fluorobenzyl)piperazin-1-yl)ethan-1-one] the “EC99, S-3769 strain, AMK” value [1] was “B (25 μM<EC99≤100 μM)”, the “EC99, S-3769 strain, GM” value [1] was “C (100 μM<EC99)” and the “EC99, mexB (PA), AZT” value [2] was “C (100 μM<EC99)”. For the same compound, the “EC99, mexB (PA), LVFX” value [2] was “C (100 μM<EC99)” and the “EC99, mexB (PA), TC” value [2] was “C (100 μM<EC99)”.

`CCOc1cccc(F)c1CN1CCN(C(=O)CN2CCC(O)(CCc3ccccc3)CC2)CC1` [Example 422, hydrochloride of 1-(4-(2-ethoxy-6-fluorobenzyl)piperazin-1-yl)-2-(4-hydroxy-4-phenethylpiperidin-1-yl)ethan-1-one] was tested, and the “EC99, S-3769 strain, AMK” value [1] was “C (100 μM<EC99)”, the “EC99, S-3769 strain, GM” value [1] was “C (100 μM<EC99)” and the “EC99, mexB (PA), AZT” value [2] was “A (12.5 μM<EC99≤25 μM)”. For the same compound, the “EC99, mexB (PA), LVFX” value [2] was “B (25 μM<EC99≤100 μM)” and the “EC99, mexB (PA), TC” value [2] was “A (12.5 μM<EC99≤25 μM)”.

For `CCOc1cccc(F)c1CN1CCN(C(=O)CN2CCC(CN)(CCc3ccccc3)CC2)CC1` [Example 425, hydrobromide of 2-(4-(aminomethyl)-4-phenethylpiperidin-1-yl)-1-(4-(2-ethoxy-6-fluorobenzyl)piperazin-1-yl)ethan-1-one], the “EC99, S-3769 strain, AMK” value [1] was “B (25 μM<EC99≤100 μM)”, the “EC99, S-3769 strain, GM” value [1] was “B (25 μM<EC99≤100 μM)” and the “EC99, mexB (PA), AZT” value [2] was “C (100 μM<EC99)”. For the same compound, the “EC99, mexB (PA), LVFX” value [2] was “C (100 μM<EC99)” and the “EC99, mexB (PA), TC” value [2] was “C (100 μM<EC99)”.

`CCOc1cccc(F)c1CN1CCN(C(=O)CN2CCC(CCc3ccccc3)(CNCCN)CC2)CC1` [Example 426, hydrochloride of 2-(4-(((2-aminoethyl)amino)methyl)-4-phenethylpiperidin-1-yl)-1-(4-(2-ethoxy-6-fluorobenzyl)piperazin-1-yl)ethan-1-one] was tested, and the “EC99, S-3769 strain, AMK” value [1] was “B (25 μM<EC99≤100 μM)”, the “EC99, S-3769 strain, GM” value [1] was “B (25 μM<EC99≤100 μM)” and the “EC99, mexB (PA), AZT” value [2] was “B (25 μM<EC99≤100 μM)”. For the same compound, the “EC99, mexB (PA), TC” value [2] was “B (25 μM<EC99≤100 μM)”.

With `CCOc1cccc(F)c1CN1CCN(C(=O)[C@H](N)C2CCN(CCc3cc(Cl)ccc3-c3cn[nH]c3)CC2)CC1` [Example 502, Hydrobromide of (R)-2-amino-2-(1-(S-chloro-2-(1H-pyrazol-4-yl)phenethyl)piperidin-4-yl)-1-(4-(2-ethoxy-6-fluorobenzyl)piperazin-1-yl)ethan-1-one] the “EC99, combinational effect with AMK, S-3769 strain” value (“EC99, combinational effect with AMK” for short) [1] was “S (EC99≤12.5 μM)”, the “EC99, combinational effect with GM, S-3769 strain” value (from here on “EC99, combinational effect with GM”) [1] was “S (EC99≤12.5 μM)” and the “EC99, combinational effect with AZT, mexB (PA)” value (“EC99 … with AZT, mexB (PA)” for short) [2] was “C (100 μM<EC99)”. The “EC99, combinational effect with LVFX, mexB (PA)” value (shortened to “EC99 … with LVFX, mexB (PA)”) [2] was “B (25 μM<EC99≤100 μM)” and the “EC99, combinational effect with TC, mexB (PA)” value (“EC99 … with TC, mexB (PA)” for short) [2] was “B (25 μM<EC99≤100 μM)”.

`CCOc1cccc(F)c1CN1CCN(C(=O)[C@H](N)C2CCN(CCc3cc(Cl)ccc3-c3cncs3)CC2)CC1` [Example 504, Hydrobromide of (R)-2-amino-2-(1-(5-chloro-2-(thiazol-5-yl)phenethyl)piperidin-4-yl)-1-(4-(2-ethoxy-6-fluorobenzyl)piperazin-1-yl)ethan-1-one] was tested, and the “EC99, combinational effect with AMK” value [1] was “A (12.5 μM<EC99≤25 μM)”, the “EC99, combinational effect with GM” value [1] was “A (12.5 μM<EC99≤25 μM)” and the “EC99 … with AZT, mexB (PA)” value [2] was “B (25 μM<EC99≤100 μM)”. For the same compound, the “EC99 … with LVFX, mexB (PA)” value [2] was “B (25 μM<EC99≤100 μM)” and the “EC99 … with TC, mexB (PA)” value [2] was “B (25 μM<EC99≤100 μM)”.

`CCc1ccccc1CN1CCN(C(=O)[C@H](N)C2CCN(CCc3cc(Cl)ccc3-c3ccccc3)CC2)CC1` [Example 505, Hydrobromide of (R)-2-amino-2-(1-(2-(4-chloro-[1,1-biphenyl]-2-yl)ethyl)piperidin-4-yl)-1-(4-(2-ethylbenzyl)piperazin-1-yl)ethan-1-one] was tested, and the “EC99, combinational effect with AMK” value [1] was “B (25 μM<EC99≤100 μM)”, the “EC99, combinational effect with GM” value [1] was “B (25 μM<EC99≤100 μM)” and the “EC99 … with AZT, mexB (PA)” value [2] was “B (25 μM<EC99≤100 μM)”. For the same compound, the “EC99 … with LVFX, mexB (PA)” value [2] was “B (25 μM<EC99≤100 μM)” and the “EC99 … with TC, mexB (PA)” value [2] was “B (25 μM<EC99≤100 μM)”.

For `N[C@@H](C(=O)N1CCN(Cc2ccccc2C2CC2)CC1)C1CCN(CCc2cc(Cl)ccc2-c2ccccc2)CC1` [Example 507, Hydrobromide of (R)-2-amino-2-(1-(2-(4-chloro-[1,1-biphenyl]-2-yl)ethyl)piperidin-4-yl)-1-(4-(2-cyclopropylbenzyl)piperazin-1-yl)ethan-1-one], the “EC99, combinational effect with AMK” value [1] was “B (25 μM<EC99≤100 μM)”, the “EC99, combinational effect with GM” value [1] was “B (25 μM<EC99≤100 μM)” and the “EC99 … with AZT, mexB (PA)” value [2] was “B (25 μM<EC99≤100 μM)”. For the same compound, the “EC99 … with LVFX, mexB (PA)” value [2] was “B (25 μM<EC99≤100 μM)” and the “EC99 … with TC, mexB (PA)” value [2] was “B (25 μM<EC99≤100 μM)”.

With `N[C@@H](C(=O)N1CCN(Cc2ccccc2C(F)(F)F)CC1)C1CCN(CCc2cc(Cl)ccc2-c2ccccc2)CC1` [Example 510, Hydrobromide of (R)-2-amino-2-(1-(2-(4-chloro-[1,1-biphenyl]-2-yl)ethyl)piperidin-4-yl)-1-(4-(2-(trifluoromethyl)benzyl)piperazin-1-yl)ethan-1-one] the “EC99, combinational effect with AMK” value [1] was “A (12.5 μM<EC99≤25 μM)”, the “EC99, combinational effect with GM” value [1] was “B (25 μM<EC99≤100 μM)” and the “EC99 … with AZT, mexB (PA)” value [2] was “B (25 μM<EC99≤100 μM)”. The “EC99 … with LVFX, mexB (PA)” value [2] was “B (25 μM<EC99≤100 μM)” and the “EC99 … with TC, mexB (PA)” value [2] was “A (12.5 μM<EC99≤25 μM)”.

In the case of `CCOc1ncccc1CN1CCN(C(=O)[C@H](N)C2CCN(CCc3cc(Cl)ccc3-c3ccccc3)CC2)CC1` [Example 511, Hydrobromide of (R)-2-amino-2-(1-(2-(4-chloro-[1,1-biphenyl]-2-yl)ethyl)piperidin-4-yl)-1-(4-((2-ethoxypyridin-3-yl)methyl)piperazin-1-yl)ethan-1-one], the “EC99, combinational effect with AMK” value [1] is reported as “B (25 μM<EC99≤100 μM)”, the “EC99, combinational effect with GM” value [1] is reported as “A (12.5 μM<EC99≤25 μM)” and the “EC99 … with AZT, mexB (PA)” value [2] is reported as “B (25 μM<EC99≤100 μM)”. For the same compound, the “EC99 … with LVFX, mexB (PA)” value [2] was “C (100 μM<EC99)” and the “EC99 … with TC, mexB (PA)” value [2] was “B (25 μM<EC99≤100 μM)”.

`CCOc1ccncc1CN1CCN(C(=O)[C@H](N)C2CCN(CCc3cc(Cl)ccc3-c3ccccc3)CC2)CC1` [Example 512, Hydrobromide of (R)-2-amino-2-(1-(2-(4-chloro-[1,1-biphenyl]-2-yl)ethyl)piperidin-4-yl)-1-(4-((4-ethoxypyridin-3-yl)methyl)piperazin-1-yl)ethan-1-one] was tested, and the “EC99, combinational effect with AMK” value [1] was “A (12.5 μM<EC99≤25 μM)”, the “EC99, combinational effect with GM” value [1] was “A (12.5 μM<EC99≤25 μM)” and the “EC99 … with AZT, mexB (PA)” value [2] was “B (25 μM<EC99≤100 μM)”. The “EC99 … with LVFX, mexB (PA)” value [2] was “B (25 μM<EC99≤100 μM)” and the “EC99 … with TC, mexB (PA)” value [2] was “B (25 μM<EC99≤100 μM)”.
